Experimental findings from patent US10183030B2, “17α,21-diesters of cortexolone for use in the treatment of tumors” (COSMO TECHNOLOGIES LTD., priority 2014, dated 2019) are described below.

Test [1] deals with stimulated PBMC (actively dividing cells). Nature of the test: IC50 on stimulated PBMC (intrinsic toxicity). It counts as cell-based. The conditions noted are these: Homo sapiens.
Method: (§5) The IC50 in PBMC were tested in 2 different activation status: • stimulated—actively dividing cells • resting—quiescent, non-dividing cells
(§6) IC50 of the compounds was determined on fresh cells isolated from human blood (PBMC).
Test [2] relates to MiaPaca2 (AR low) pancreatic cancer cells. Nature of the test: ATP-dependent proliferation/viability assay, MiaPaca2. The settings on record: Homo sapiens. It counts as cell-based. As for the experimental part:
(§1) The experimental method consisted of: • 1. […] After 24 hours, 10 nM DHT (dihydrotestosterone) with or without anti-androgen compounds, or DMSO vehicle (negative control) was added to the cultures. • 3.
(§2) Each compounds was titrated from 3 uM to 200 uM.

Another test concerns MCF7 breast cancer cells. Nature of the test: In vitro proliferation / cytotoxic assay, MCF7. It counts as cell-based. The settings on record: Homo sapiens; MCF7; Table IV; read-out: In vitro proliferation IC50 (micro Molar).
The subject of a further test is HT29 colon cancer cells. The test can be described thus: In vitro proliferation, HT29 (cancer cell panel). It counts as cell-based. The conditions noted are these: Homo sapiens, HT-29; HT29; Table IV; read-out: In vitro proliferation IC50 (micro Molar). As for the experimental part: as §2
For test [3], the system named is Panc1 (AR+) pancreatic cancer cells. Nature of the test: ATP-dependent proliferation/viability assay, Panc1. It counts as cell-based. The settings on record: Homo sapiens. As for the experimental part:
as §1, §2

Test [4] deals with PC3 (AR−) prostate cancer cells. Nature of the test: ATP-dependent proliferation/viability assay, PC3. The settings on record: Homo sapiens, Table IV, read-out: In vitro proliferation IC50 (micro Molar). It counts as cell-based.
Test [5] relates to LNCaP (AR+) prostate cancer cells. The test can be described thus: ATP-dependent proliferation/viability assay, LNCaP. It counts as cell-based. The conditions noted are these: Homo sapiens. As for the experimental part:
(§3) The experiment was performed to test and to define the antitumor activity in vitro of cortexolone 17α-benzoate on LNCaP (AR^+) and PC3 (AR^−), representative of Prostatic cancer cell lines with Androgen Receptor (AR) positive or negative expression, respectively. The experimental method consisted of: • 1. […] After 24 hours, 10 nM DHT (dihydrotestosterone) with or without anti-androgen compounds, or DMSO vehicle (negative control) was added to the cultures. • 3.
(§4) The experiment was performed to test and to define antitumor activity in vitro of cortexolone 17α-valerate-21-propionate (CB-03-10) on LNCaP (AR^+) and PC3 (AR^−), representative of Prostatic cancer cell lines with AR positive or negative expression, respectively. The experimental method consisted of: • 1. […] After 24 hours, 10 nM DHT (dihydrotestosterone) with or without anti-androgen compounds, or DMSO vehicle (negative control) was added to the cultures. • 3.
as §2

Test [6] concerns PC3 (AR−) prostate cancer cells. The test can be described thus: ATP-dependent proliferation/viability assay, PC3. It counts as cell-based. The settings on record: Homo sapiens, 72 h, 3 days. As for the experimental part: as §3, §4, §2
The test system of test [7] is MiaPaca-2 xenograft tumor. The test can be described thus: MiaPaca2 human pancreatic tumor xenograft in nude mice, subcutaneous treatment. It counts as in vivo, mouse. As for the experimental part: The test was carried out comparing the anti-tumor activity of cortexolone 17α-benzoate at two different dosages (8.0 mg/kg, corresponding approximately at 230 μM, and 40 mg/kg, corresponding approximately at 1150 μM), versus the vehicle (i.e. 0.4% (v/v) tween 80 and 0.5% (w/v) carboxymethylcellulose in normal saline) and versus the comparator Cyproterone Acetate at two different dosages (7.4 mg/kg and 37 mg/kg).
1×10^6 MiaPaca-2 cells suspended in matrigel were subcutaneously injected into 6 week old athymic nude mice.
The treatment with the tested compounds, with the vehicle and with the comparative compound, was initiated after the tumor volume has reached 50 mm^3 after transplantation. All compounds were injected 100 μL/mouse subcutaneously of low dose solution (approximately 230 μM) or 100 μL/mouse of high dose solution (approximately 1150 μM) of cortexolone 17α-benzoate, vehicle and cyproterone acetate, respectively. Compounds and controls were administered subcutaneously daily for 28 days.
Tumors were measured every 4 days with a digital caliper.
The results are plotted in FIG. 1 as average change in tumor volume relative to the start of treatment. Tumor volume was calculated according to the formula 0.5236(r1)^2(r2) where r1<r2.
The test was carried out comparing the anti-tumor activity of cortexolone 17α-valerate-21-propionate (CB-03-10) at two different dosages (approximately 8.6 mg/kg and 43 mg/kg) versus the vehicle (i.e. 0.4% (v/v) tween 80 and 0.5% (w/v) carboxymethylcellulose in normal saline) and versus the comparator Cyproterone Acetate at two different dosages (7.4 mg/kg and 37 mg/kg).
The treatment with the tested compound, with the vehicle and with the comparative compound was initiated after the tumor has reached a volume of 50 mm^3 after implantation, injecting subcutaneously 100 μL/mouse of low dose solution (approximately 230 μM) or 100 μL/mouse of high dose solution (approximately 1150 μM) of cortexolone 17α-valerate-21-propionate (CB-03-10), vehicle and cyproterone acetate, respectively. Compounds and controls were administered subcutaneously daily for 28 days.
The results are plotted in FIG. 2 as average change in tumor volume relative to the start of treatment. Tumor volume was calculated according to the formula 0.5236(r1)^2(r2) where r1<r2.
CPA a well-known anti-androgen was used as control. Briefly 1×10^6 MiaPaca2 cells suspended in matrigel were subcutaneously (SC) injected into 6 week old male athymic nude mice. Tumors were measured every 4 days with a digital caliper. Tumor volume was calculated according to the formula: 0.5236(r1) 2(r2) where r1<r2. Treatment with CB-03-10 and controls compounds was initiated after the tumor had reached 50 mm^3. Compounds diluted in DMSO/2-hydroxypropyl b-cyclodextrin (vehicle) were injected subcutaneously (SC) daily (100 μL/mouse) at the concentration of 40 mg/Kg daily for 28 consecutive days.

Test [8] deals with resting PBMC (quiescent, non-dividing cells). Nature of the test: IC50 on resting PBMC (intrinsic toxicity). The conditions noted are these: Homo sapiens, resting PBMC. It counts as cell-based.
Method: as §5, §6
Test [9] concerns Caspase 8, 9 and 3/7 in MiaPaca2 cells. Nature of the test: Caspase activity in MiaPaca2 cells. It counts as cell-based, human. The settings on record: 8, 24, 48 hours. As for the experimental part: From previous studies was determined that CB-03-10 induces apoptosis using Annexin V staining in MiaPaca2 cells. To better analyze the phenomenon the enzymatic activity of Caspase 8 (initiator caspase for Extrinsic Pathway) and Caspase 9 (initiator caspase for Intrinsic Pathway) and of Caspases 3 and 7 (effector caspases) were measured.
After 24 hours test compounds were added to cells, Gemcitabine (a known pancreatic cancer chemotherapeutic agent) and DMSO were used as positive and negative control, respectively. After 8, 24, & 48 hours incubation with test compounds, cells were lysed in buffer containing the caspase 3/7 or 8 or 9 substrate and a stable luciferase in proprietary buffers. The lysates were transferred to white opaque plates before measuring luminescence in a Tecan Safire instrument. Parallel plates treated identically, were used to determine viable cells. All caspase activities were corrected for the number of viable cells.

[10] abbreviates: PBMC STIMULATED, Table IV, read-out: In vitro proliferation IC50 (micro Molar).
Setting [11] is: MIA PaCa-2, 72 h, MiaPaca2, Tables I and II, unit inferred, titrated from 3 uM to 200 uM, 3 days, read-out: IC50.
The mark [12] stands for this setting: MIA PaCa-2, MiaPaca2, Table IV, read-out: In vitro proliferation IC50 (micro Molar).
Where [13] appears, read: PANC-1, 72 h, Panc1, Tables I and II, unit inferred, titrated from 3 uM to 200 uM, 3 days, read-out: IC50.
[14] abbreviates: PANC-1, Panc1, Table IV, read-out: In vitro proliferation IC50 (micro Molar).
Where [15] appears, read: 72 h, Tables I and II, unit inferred, compounds titrated from 3 uM to 200 uM, 3 days, read-out: IC50.
The mark [16] stands for this setting: Table IV, read-out: In vitro proliferation IC50 (micro Molar).
Setting [17] is: Tables I and II, unit inferred, titrated from 3 uM to 200 uM.

Each structure is given as a SMILES string. Read-outs that look alike come from different tables or passages of the source.

Method for MCF7 breast cancer cells: After 72 hours incubation cell were harvested, lysed and viability determined using the cell titer glow assay for viability.

As for `CCCC(=O)OC1(C(=O)CO)CCC2C3CCC4=CC(=O)CC[C@]4(C)C3=CC[C@@]21C` (single isomer, unassigned) [CB-03-04], the IC50 in [1] (setting [10]) worked out at 360 µM; in test [2] (setting [11]), 160 µM; in test [2] (setting [12]), 160 µM; with MCF7 breast cancer cells, 88 µM; with HT29 colon cancer cells it was 51 µM; in [3] (setting [13]) it was 340 µM. For the same molecule, in test [3] (setting [14]), the IC50 turned out to be 340 µM.

`CCC(=O)O[C@]1(C(=O)CO)CC[C@H]2[C@@H]3CCC4=CC(=O)CC[C@]4(C)[C@H]3CC[C@@]21C` [CB-03-01]: the IC50 in test [1] (setting [10]) is 0.1 µM; in [2] (setting [11]) it was 110 µM; in test [2] (setting [12]), 110 µM; with MCF7 breast cancer cells, 121 µM; in test [4] it was 190 µM; in test [3] (setting [13]) it was 490 µM. In addition, the IC50 in test [3] (setting [14]) came to 490 µM; in test [5] (setting [15]), 33 µM; in [5] (setting [16]) it was 33 µM; in test [6] (setting [17]) it was 190 µM.

In the case of `C[C@]12CCC(=O)C=C1CC[C@@H]1[C@@H]2CC[C@@]2(C)[C@H]1CC[C@]2(OC(=O)c1ccccc1)C(=O)CO` [CB-03-06, cortexolone 17α-benzoate], the “pancreatic tumor size increase relative to the start of treatment” value in test [7] (Examples 5 and 6, SC daily for 28 days, test compounds at high dose (approximately 1150 μM, 100 μL/mouse), Cyproterone Acetate treatment groups 7.4 and 37 mg/kg) is “less than 5 fold”.

For the molecule `CC(=O)O[C@]1(C(C)=O)CC[C@H]2[C@@H]3C=C(Cl)C4=CC(=O)[C@@H]5C[C@@H]5[C@]4(C)[C@H]3CC[C@@]21C` [Cyproterone Acetate, Cyproterone acetate, reference compound], the IC50 in test [1] (setting [10]) came to 62 µM; in test [1] (stimulated PBMC, Example 7, Experiment 1, read-out: IC50 (microM) on Stimulated PBMC), 63 µM; in [1] (stimulated PBMC, Example 7, Experiment 2, read-out: IC50 (microM) on Stimulated PBMC), 62 µM; in test [2] (MIA PaCa-2, 72 h, MiaPaca2, 10 nM DHT, 3 days, Examples 3-4, Experiment 1, sigmoidal dose-response curve fit, read-out: IC50), 46 µM; in test [2] (MIA PaCa-2, 72 h, MiaPaca2, 10 nM DHT, 3 days, Examples 3-4, Experiment 2, pooled experiments, least-squares fit, read-out: IC50), 39 µM; in test [2] (setting [11]) it was 39 µM. Also, the IC50 in test [2] (MIA PaCa-2, MiaPaca2, Example 7, Experiment 1, read-out: IC50) was 39 µM; in [2] (MIA PaCa-2, MiaPaca2, Example 7, Experiment 2, read-out: IC50), 39 µM; in [2] (setting [12]) it was 39 µM; in the test with MCF7 breast cancer cells, 64 µM; in test [4] it was 90 µM; in test [8] (Example 7, Experiment 1, read-out: IC50 (microM) on Resting PBMC) it was 18 µM. For the same molecule, the IC50 in test [8] (Example 7, Experiment 2, read-out: IC50 (microM) on Resting PBMC) amounted to 84 µM; in test [3] (PANC-1, 72 h, Panc1, 10 nM DHT, 3 days, Examples 3-4, Experiment 1, sigmoidal dose-response curve fit, read-out: IC50), 54 µM; in test [3] (PANC-1, 72 h, Panc1, 10 nM DHT, 3 days, Examples 3-4, Experiment 2, pooled experiments, least-squares fit, read-out: IC50), 46 µM; in test [3] (setting [13]) it was 46 µM; in test [3] (PANC-1, Panc1, Example 7, Experiment 1, read-out: IC50) it was 52 µM; in [3] (PANC-1, Panc1, Example 7, Experiment 2, read-out: IC50) it was 46 µM. The IC50 in test [3] (setting [14]) worked out at 46 µM; in [5] (72 h, 10 nM DHT, 3 days, Examples 1-2, Experiment 1 (sigmoidal dose response fit), read-out: IC50), 29 µM; in [5] (72 h, 10 nM DHT, 3 days, Examples 1-2, Experiment 2 (nonlinear regression least squares fit), read-out: IC50), 22 µM; in test [5] (setting [15]) it was 22 µM; in test [5] (setting [16]), 22 µM; in [6] (10 nM DHT, Examples 1-2, Experiment 1) it was 98 µM. Further, the IC50 in test [6] (10 nM DHT, Examples 1-2, Experiment 2) was 90 µM; in test [6] (setting [17]), 90 µM. The “pancreatic tumor size increase relative to the initial size, during the treatment period” value in test [7] (Example 22, 40 mg/Kg SC daily for 28 consecutive days) came to 12 fold.

With `Nc1ccn([C@@H]2O[C@H](CO)[C@@H](O)C2(F)F)c(=O)n1` [Gemcitabine, reference compound], the “Caspase 3/7 induction” value in test [9] is recorded as “not seen until the 48 hours mark”.
